Patent publication US20160130245A1, “6,8-SUBSTITUTED NARINGENIN DERIVATIVE AND USE THEREOF” (SUN YAT-SEN UNIVERSITY, priority 2012, published 2016)

Tests used:
[1] = system: mice with cough induced from aqueous ammonia; assay: Cough relieving effect of singly administered compounds in mice with cough induced from aqueous ammonia; assay type: in vivo, male KM mice; conditions: example compounds 7.44 μmol/ml, codeine phosphate 0.47 μmol/ml; for Coughs: coughs counted in 3 min after 15 s atomized 25% aqueous ammonia, 1 hr after administration, intragastric gavage or intraperitoneal injection, 0.2 ml/10 g body weight, mean ± spread; for Cough relieving rate: relative to blank group (17.8 ± 5.4 coughs), same dosing as Coughs, 0.2 ml/10 g
Description: II. Test on Cough Relieving Effect of Singly Administered Example Compounds of the Present Invention in Mice with Cough Induced from Aqueous Ammonia
1. Test animals: male KM mice (available from Guangdong Medical Laboratory Animal Center, Certificate No.: SCXK (Guangdong) 2008-0002, No. 0113738).
2. Test groups and treatment with drugs: Blank control group: treatment with 50% (v/v) PEG400 in physiological saline.
Treatment group with codeine phosphate as positive control—Codeine phosphate (Lott 20091212) is manufactured by Qinghai Pharmaceutical Co., Ltd. Before test, powdered codeine phosphate was added to 50% (v/v) PEG400 in physiological saline, to formulate a 0.47 μmol/ml solution.
Eligible male KM mice were randomly designated to a blank control group, and treatment groups with codeine phosphate as positive control and with example compounds, according to […].
The animals in each group were administered by intragastric gavage or intraperitoneal injection at a dosage of 0.2 ml/10 g of body weight, and placed in a cough inducing chamber 1 hr after administration. 1 ml of 25% concentrated aqueous ammonia was added to an atomizing cup and atomized for 15 s (at a rate of 0.15 ml/min). The coughs in 3 min were counted (during the typical cough, the mouth was opened and the head was lowered, which were accompanied by quivering of the neck and frequently a forward rushing).
Statistical analysis of data—Statistical analysis of all the data was conducted by SPSS 17.0 after the outliers were excluded by t test. Analysis of variance was performed by one-way ANOVA, multiple comparisons between the blank control group and each treatment group were carried out by Dunnett test, and the pairwise multiple comparisons between each treatment group and the codeine phosphate group were conducted by Duncan test.

Row | SMILES | Coughs [1] | Cough relieving rate [1] [%] | melting point [°C]
1 | CCCc1c(O)cc2c(c1O)C(=O)CC(c1ccc(O)cc1)O2 (centres unmarked) [Example 2, 6-n-propyl-2,3-dihydro-5,7-dihydroxy-2-(4-hydroxyphenyl)chromen-4-one] | 12.4 ± 4.6 | 30.16 | 173 to 175
2 | C=CCc1c(O)c(Br)c(O)c2c1OC(c1ccc(O)cc1)CC2=O (centres unmarked) [Example 3, 8-allyl-6-bromo-2,3-dihydro-5,7-dihydroxy-2-(4-hydroxyphenyl)chromen-4-one] | 11.2 ± 6.2 | 37.28 | 203 to 205
3 | C=CCc1c(O)c(Br)c2c(c1O)C(=O)CC(c1ccc(O)cc1)O2 (centres unmarked) [Example 4, 6-allyl-8-bromo-2,3-dihydro-5,7-dihydroxy-2-(4-hydroxyphenyl)chromen-4-one] | 11.0 ± 4.1 | 38.03 | 158 to 160
4 | C=CCc1c(O)c(Cl)c2c(c1O)C(=O)CC(c1ccc(O)cc1)O2 (centres unmarked) [Example 5, 6-allyl-8-chloro-2,3-dihydro-5,7-dihydroxy-2-(4-hydroxyphenyl)chromen-4-one] | 11.8 ± 7.3 | 33.49 | 158 to 160
5 | CCCc1c(O)c(Cl)c(O)c2c1OC(c1ccc(O)cc1)CC2=O (centres unmarked) [Example 6, 6-chloro-2,3-dihydro-5,7-dihydroxy-2-(4-hydroxyphenyl)-8-propylchromen-4-one] | 9.1 ± 3.9 | 49.06 | 175 to 176
6 | C=CCc1c(O)c(Cl)c(O)c2c1OC(c1ccc(O)cc1)CC2=O (centres unmarked) [Example 7, 8-allyl-6-chloro-2,3-dihydro-5,7-dihydroxy-2-(4-hydroxyphenyl)chromen-4-one] | 10.5 ± 5.8 | 40.85 | 215 to 216
7 | C=CCc1c(O)c(O)c2c(c1O)C(=O)CC(c1ccc(O)cc1)O2 (centres unmarked) [Example 8, 6-allyl-2,3-dihydro-5,7,8-Trihydroxy-2-(4-hydroxyphenyl)chromen-4-one] | 10.2 ± 2.6 | 42.64 | 95 to 100
8 | CCCc1c(O)c(Cl)c2c(c1O)C(=O)CC(c1ccc(O)cc1)O2 (centres unmarked) [Example 9, 8-Chloro-2,3-dihydro-5,7-dihydroxy-2-(4-hydroxyphenyl)-6-propylchromen-4-one] | 10.7 ± 4.2 | 39.82 | 175 to 176
9 | C=CCc1c(O)c(I)c2c(c1O)C(=O)CC(c1ccc(O)cc1)O2 (centres unmarked) [Example 10, 8-iodo-2,3-dihydro-5,7-dihydroxy-2-(4-hydroxyphenyl)-6-allylchromen-4-one] | 12.2 ± 4.0 | 31.24 | 218 to 220
10 | O=CCc1c(O)cc(O)c2c1O[C@H](c1ccc(O)cc1)CC2=O [Example 11, Naringenin-8-acetaldehyde] | 11.4 ± 6.5 | 35.78 | 150 to 155
11 | O=CCc1c(O)cc2c(c1O)C(=O)C[C@@H](c1ccc(O)cc1)O2 [Example 12, Naringenin-6-acetaldehyde] | 9.3 ± 4.3 | 47.59 | 178 to 180
12 | O=C(O)Cc1c(O)c(Cl)c(O)c2c1O[C@H](c1ccc(O)cc1)CC2=O [Example 13, 6-chloro-naringenin-8-acetic acid] | 7.4 ± 3.4 | 58.43 | 185 to 186
13 | O=C(O)Cc1c(O)c(Cl)c2c(c1O)C(=O)C[C@@H](c1ccc(O)cc1)O2 [Example 14, 8-chloro-naringenin-6-acetic acid] | 9.3 ± 3.9 | 47.59 | 185 to 186
14 | O=C(O)Cc1c(O)cc(O)c2c1O[C@H](c1ccc(O)cc1)CC2=O [Example 15, Naringenin-8-acetic acid] | 8.3 ± 5.8 | 53.31 | 245 to 247
15 | COc1ccc2c3c1O[C@H]1[C@@H](O)C=C[C@H]4[C@@H](C2)N(C)CC[C@@]341 [codeine phosphate, reference compound] | 10.8 ± 3.5 | 39.60 | –
